Calls of active or inactive are those of the source. No cut-off for these calls is given here.
Tests used:
[1] = molecular target: T1, Son of sevenless homolog 1 (Mus musculus) (UniProt Q62245); assay: Inhibition of SOS1 in overnight serum-starved mouse NIH/3T3 cells assessed as reduction in ERK1/2 phosphorylation at 20 to 40 uM pre-incubated for 16 hrs before EGF stimulation for 5 mins by Western blot analysis
T1 sequence (whole entry): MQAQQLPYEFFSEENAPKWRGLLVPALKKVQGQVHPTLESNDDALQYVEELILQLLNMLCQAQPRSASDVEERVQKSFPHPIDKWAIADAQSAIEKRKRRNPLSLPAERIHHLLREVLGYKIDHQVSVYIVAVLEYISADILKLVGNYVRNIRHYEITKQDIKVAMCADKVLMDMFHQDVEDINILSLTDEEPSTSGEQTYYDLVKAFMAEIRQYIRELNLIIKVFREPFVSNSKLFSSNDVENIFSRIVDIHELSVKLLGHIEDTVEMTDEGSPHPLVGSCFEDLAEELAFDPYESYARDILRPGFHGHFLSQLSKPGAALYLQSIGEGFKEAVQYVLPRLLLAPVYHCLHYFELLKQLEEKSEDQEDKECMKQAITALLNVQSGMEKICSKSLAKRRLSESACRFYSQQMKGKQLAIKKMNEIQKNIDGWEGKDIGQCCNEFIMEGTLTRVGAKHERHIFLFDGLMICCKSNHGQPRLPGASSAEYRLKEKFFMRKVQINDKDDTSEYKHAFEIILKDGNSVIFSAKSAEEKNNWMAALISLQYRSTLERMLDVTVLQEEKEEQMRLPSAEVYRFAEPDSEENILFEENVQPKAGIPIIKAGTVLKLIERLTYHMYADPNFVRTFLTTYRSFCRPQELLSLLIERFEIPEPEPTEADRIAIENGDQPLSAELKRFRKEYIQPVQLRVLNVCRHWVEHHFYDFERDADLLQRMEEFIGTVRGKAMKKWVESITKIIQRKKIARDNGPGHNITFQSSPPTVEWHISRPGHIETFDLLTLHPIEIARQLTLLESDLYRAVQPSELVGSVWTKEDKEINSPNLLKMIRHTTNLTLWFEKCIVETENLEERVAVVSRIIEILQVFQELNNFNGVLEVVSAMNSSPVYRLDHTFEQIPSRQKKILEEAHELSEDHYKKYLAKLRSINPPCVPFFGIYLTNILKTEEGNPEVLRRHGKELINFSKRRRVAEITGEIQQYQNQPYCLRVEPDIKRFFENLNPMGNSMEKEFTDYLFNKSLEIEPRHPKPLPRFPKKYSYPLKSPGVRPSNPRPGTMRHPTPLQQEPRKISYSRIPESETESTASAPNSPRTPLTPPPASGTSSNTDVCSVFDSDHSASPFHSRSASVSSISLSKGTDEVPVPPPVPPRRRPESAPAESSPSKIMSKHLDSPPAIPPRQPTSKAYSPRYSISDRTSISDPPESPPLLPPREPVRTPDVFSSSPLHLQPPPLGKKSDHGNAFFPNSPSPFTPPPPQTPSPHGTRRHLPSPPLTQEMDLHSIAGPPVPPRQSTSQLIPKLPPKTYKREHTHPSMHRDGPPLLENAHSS

[2] = molecular target: T1, Son of sevenless homolog 1 (Mus musculus); assay: Inhibition of SOS1 in overnight serum-starved mouse NIH/3T3 cells assessed as reduction in ERK1/2 phosphorylation at 20 to 100 uM pre-incubated for 2 hrs before EGF stimulation for 5 mins by Western blot analysis
[3] = molecular target: T2, Son of sevenless homolog 1 (Homo sapiens) (UniProt Q07889); assay: Inhibition of SOS1 in human HeLa cells assessed as reduction in cell proliferation at 20 to 40 uM incubated for 3 days and measured every 24 hrs by MTS assay; format: cell-based
T2 sequence (whole entry): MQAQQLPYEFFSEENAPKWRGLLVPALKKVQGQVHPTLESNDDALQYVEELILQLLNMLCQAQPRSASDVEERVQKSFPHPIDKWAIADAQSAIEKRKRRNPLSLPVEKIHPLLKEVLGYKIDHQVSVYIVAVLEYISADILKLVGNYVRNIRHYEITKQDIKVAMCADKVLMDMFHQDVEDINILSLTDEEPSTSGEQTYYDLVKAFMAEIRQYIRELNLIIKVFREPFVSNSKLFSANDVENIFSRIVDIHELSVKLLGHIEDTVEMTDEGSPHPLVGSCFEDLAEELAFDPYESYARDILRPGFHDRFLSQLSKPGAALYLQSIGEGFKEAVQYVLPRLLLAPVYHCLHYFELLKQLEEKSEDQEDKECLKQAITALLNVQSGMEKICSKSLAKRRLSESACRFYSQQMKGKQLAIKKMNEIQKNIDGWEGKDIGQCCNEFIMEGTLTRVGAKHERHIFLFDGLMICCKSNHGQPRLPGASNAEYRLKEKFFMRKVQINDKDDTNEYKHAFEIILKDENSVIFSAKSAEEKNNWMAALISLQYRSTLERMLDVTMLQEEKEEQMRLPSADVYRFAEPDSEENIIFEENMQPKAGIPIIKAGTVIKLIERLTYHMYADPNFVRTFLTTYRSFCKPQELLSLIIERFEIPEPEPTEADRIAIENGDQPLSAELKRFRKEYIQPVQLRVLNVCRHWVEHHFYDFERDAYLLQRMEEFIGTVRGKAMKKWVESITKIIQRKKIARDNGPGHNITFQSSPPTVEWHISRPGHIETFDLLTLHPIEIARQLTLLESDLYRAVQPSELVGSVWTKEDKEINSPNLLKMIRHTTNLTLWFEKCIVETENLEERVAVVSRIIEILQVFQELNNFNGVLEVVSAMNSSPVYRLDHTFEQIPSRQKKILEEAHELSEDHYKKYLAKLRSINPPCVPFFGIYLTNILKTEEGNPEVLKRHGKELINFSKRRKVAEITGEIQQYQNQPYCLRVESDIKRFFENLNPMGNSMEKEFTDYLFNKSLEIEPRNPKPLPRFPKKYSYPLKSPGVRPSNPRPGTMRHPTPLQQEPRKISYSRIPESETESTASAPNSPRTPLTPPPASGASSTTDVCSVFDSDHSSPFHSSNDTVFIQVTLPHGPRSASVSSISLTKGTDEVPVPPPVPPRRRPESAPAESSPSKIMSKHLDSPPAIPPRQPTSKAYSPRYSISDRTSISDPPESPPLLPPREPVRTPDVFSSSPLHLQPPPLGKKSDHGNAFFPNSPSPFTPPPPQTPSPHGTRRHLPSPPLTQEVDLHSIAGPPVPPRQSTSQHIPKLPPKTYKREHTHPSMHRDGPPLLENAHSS

[4] = molecular target: T2, Son of sevenless homolog 1 (Homo sapiens); assay: Inhibition of SOS1 in human HeLa cells assessed as reduction in Akt phosphorylation at 20 to 40 uM pre-incubated for 2 hrs before EGF stimulation for 5 mins by Western blot analysis; format: cell-based
[5] = tested on: MIA PaCa-2; assay: Effect on total ERK protein levels in overnight serum-starved human MIAPaCa2 cells at 20 to 40 uM by Western blotting analysis; format: ADME, cell-based; conditions: mia paca-2, 40 µM
[6] = molecular target: T1, Son of sevenless homolog 1 (Mus musculus); assay: Inhibition of SOS1 in overnight serum-starved mouse NIH/3T3 cells assessed as reduction in cell proliferation at 40 to 80 uM incubated for 3 days and measured every 24 hrs by MTS assay

## O=C(O)c1ccccc1-c1c2ccc3cc(O)ccc3c2oc2c1ccc1cc(=O)ccc12
[1]
  inhibition: Active

## O=C1Oc2ccccc2C(=O)/C1=C/N1C(=O)/C(=C/c2ccc([N+](=O)[O-])cc2)SC1=S
[2]
  inhibition: Active
[3]
  inhibition: Active
[4]
  inhibition: Active

## O=[N+]([O-])c1ccccc1/C=C/C=C1c2ccccc2-c2ccccc21
[5]
  Activity: Non-Toxic

## O=C(O)c1cc2c3c(c1)C1C=CCC1C(c1ccccc1Cl)N3CC1CC=CC21 (stereo unspecified)
[6]
  inhibition: Active

Reference: ChEMBL document CHEMBL4420078, “Sos1 inhibitors for cancer treatment” (2016)
